Experimental data from patent publication US9676721B2, “Compounds and compositions for the inhibition of NAMPT” (FORMA TM, LLC, priority 2010, dated 2017).
pIC50: −log10 of the molar value.

Assays:
NAMPT = NAMPT (Homo sapiens (Human), UniProt P43490); assay: Biochemical Inhibition Assay (NAMPT enzymatic reaction, NMN by mass spectrometry); conditions: recombinant His-tagged NAMPT 33 nM, 1 μM NAM, 30 minutes; read-out: Biochem IC50
Method: Biochemical Inhibition Assay NAMPT Protein Purification Recombinant His-tagged NAMPT was produced in E. coli cells, purified over a Ni column, and further purified over a size-exclusion column by XTAL Biostructures. The NAMPT Enzymatic Reaction The NAMPT enzymatic reactions were carried out in Buffer A (50 mM Hepes pH 7.5, 50 mM NaCl, 5 mM MgCl2, and 1 mM THP) in 96-well V-bottom plates. The compound titrations were performed in a separate dilution plate by serially diluting the compounds in DMSO to make a 100× stock. […] Background and signal strength was determined by addition (or non-addition) of a serial dilution of NMN to a pre-quenched enzyme and cofactor mix. Quantification of NMN A mass spectrometry-based assay was used to measure the NAMPT reaction product (NMN) and the internal control (L-Cystathionine). NMN and L-Cystathionine were detected using the services of Biocius Lifesciences with the RapidFire system. In short, the NMN and L-Cystathionine are bound to a graphitic carbon cartridge in 0.1% formic acid, eluted in 30% acetonitrile buffer, and injected into a Sciex 4000 mass spectrometer. The components of the sample were ionized with electrospray ionization and the positive ions were detected. […] The fragments are quantified and the analyzed by the following method. % Inhibitions are Determined Using this Method. First the NMN signal is normalized to the L-Cystathionine signal by dividing the NMN signal by the L-Cystathionine signal for each well. The signal from the background wells are averaged and subtracted from the test plates. […] IC50s are Determined Using Excel and this Formula.

A2780 cells = assay: In-Vitro Cell Proliferation Assay (SRB); format: cell-based
Method: In-Vitro Cell Proliferation Assay […] After overnight incubation at 37° C. and 5% CO2, the compound titrations were performed in a separate dilution plate by serially diluting the compounds in DMSO to make a 1000× stock. The compounds were then further diluted to 10× final concentration in culture media, whereupon 20 μL of each dilution was added to the plated cells with controls (e.g. DMSO and blank) to make a final volume of 200 μL. The final DMSO concentration in each well was 0.1%. The plates were then incubated for 72 hours at 37° C. in a 5% CO2 incubator. The number of viable cells was then assessed using sulforhodamine B (SRB) assay. Cells were fixed at 4° C. for 1 hour with the addition of 50 μL 30% trichloroacetic acid (TCA) to make a final concentration of 6% TCA. The plates were washed four times with H2O and allowed to dry for at least 1 hour, whereupon 100 μL of a […] SRB in 1% acetic acid solution was added to each well and incubated at room temperature for at least 30 minutes. The plates were then washed three times with 1% acetic acid, dried, and treated with 100 μL of 10 mM Tris-Base solution. The plates were then read in a microplate reader at an absorbance of 570 nm. Background was generated on a separate plate with media only. Method for Determining % Inhibition First, the signals from the background plate are averaged, then the background was subtracted from the test plates. […] Formula for Determining IC50 Values: […] Specificity of Cytotoxicity. Inhibition of NAMPT could be reversed by the addition of NAM or NMN. The specificity of the compounds were determined via cell viability assay in the presence of the compound and either NAM or NMN. Percent inhibitions were determined using the method given above.

Sequence of NAMPT (P43490 whole entry): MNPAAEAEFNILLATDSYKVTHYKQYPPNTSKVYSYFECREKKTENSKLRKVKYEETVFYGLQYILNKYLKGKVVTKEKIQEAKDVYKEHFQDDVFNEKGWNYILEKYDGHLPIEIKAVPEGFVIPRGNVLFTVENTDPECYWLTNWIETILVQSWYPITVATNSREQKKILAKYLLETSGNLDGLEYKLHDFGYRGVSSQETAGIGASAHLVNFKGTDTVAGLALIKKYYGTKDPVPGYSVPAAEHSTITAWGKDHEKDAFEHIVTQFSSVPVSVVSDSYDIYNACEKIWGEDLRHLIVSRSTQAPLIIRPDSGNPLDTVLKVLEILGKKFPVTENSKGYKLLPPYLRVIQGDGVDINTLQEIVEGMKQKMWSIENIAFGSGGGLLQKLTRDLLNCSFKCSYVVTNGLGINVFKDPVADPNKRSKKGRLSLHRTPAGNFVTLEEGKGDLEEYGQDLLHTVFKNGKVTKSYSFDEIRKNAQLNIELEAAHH

SMILES	pIC50 (NAMPT)	pIC50 (A2780 cells; Homo sapiens, A2780, 72 h)	pIC50 (A2780 cells; 72 hours)
N#C/N=C(\NCCc1ccc(S(=O)(=O)c2ccccc2)cc1)Nc1ccncc1 [1-{2-[4-(benzenesulfonyl)phenyl]ethyl}-2-cyano-3-(pyridin-4-yl)guanidine]	9.00	8.28	
N#C/N=C(\NCc1ccc(S(=O)(=O)c2ccccc2)cc1)NCc1ccn2ccnc2c1 [2-cyano-1-(imidazo[1,2-a]pyridin-7-ylmethyl)-3-(4-(phenylsulfonyl)benzyl)guanidine]	6.58	6.49	
COc1ccc(S(=O)(=O)c2ccc(CNC(=NC#N)Nc3ccncc3)cc2)c(OC)n1 [2-cyano-1-{[4-(2,6-dimethoxypyridine-3-sulfonyl)phenyl]methyl}-3-(pyridin-4-yl)guanidine]	8.17	8.47	
COc1ccc(C(C)C)cc1S(=O)(=O)c1ccc(CNC(=NC#N)Nc2ccncc2)cc1 [2-cyano-1-[(4-{[2-methoxy-5-(propan-2-yl)benzene]sulfonyl}phenyl)methyl]-3-(pyridin-4-yl)guanidine]	8.28	8.46	
N#CN=C(NCc1ccc(S(=O)(=O)c2ccc(OC(F)(F)F)cc2)cc1)Nc1ccncc1 [2-cyano-3-(pyridin-4-yl)-1-[(4-{[4-(trifluoromethoxy)benzene]sulfonyl}phenyl)methyl]guanidine]	8.46	7.93	
CCS(=O)(=O)c1cccc(S(=O)(=O)c2ccc(CNC(=NC#N)Nc3ccncc3)cc2)c1 [2-cyano-1-[(4-{[3-(ethanesulfonyl)benzene]sulfonyl}phenyl)methyl]-3-(pyridin-4-yl)guanidine]	8.74		7.88
N#CN=C(NCc1ccc(S(=O)(=O)c2ccc(C(F)(F)F)cc2)cc1)Nc1ccncc1 [2-cyano-3-(pyridin-4-yl)-1-[(4-{[4-(trifluoromethyl)benzene]sulfonyl}phenyl)methyl]guanidine]	7.79	8.12	
N#CN=C(NCc1ccc(S(=O)(=O)c2cccc3cccnc23)cc1)Nc1ccncc1 [2-cyano-3-(pyridin-4-yl)-1-{[4-(quinoline-8-sulfonyl)phenyl]methyl}guanidine]	8.54	7.85	
N#CN=C(NCc1ccc(S(=O)(=O)c2cnc3ccccc3c2)cc1)Nc1ccncc1 [2-cyano-3-(pyridin-4-yl)-1-{[4-(quinoline-3-sulfonyl)phenyl]methyl}guanidine]	9.00	8.74	
COc1ccc(S(=O)(=O)c2ccc(CNC(=NC#N)Nc3ccncc3)cc2)cc1F [2-cyano-1-({4-[(3-fluoro-4-methoxybenzene)sulfonyl]phenyl}methyl)-3-(pyridin-4-yl)guanidine]	9.00	8.70	
COc1ccc(S(=O)(=O)c2ccc(CNC(=NC#N)Nc3ccncc3)cc2)cc1Cl [1-({4-[(3-chloro-4-methoxybenzene)sulfonyl]phenyl}methyl)-2-cyano-3-(pyridin-4-yl)guanidine]	8.59	8.31	
COc1ccc(S(=O)(=O)c2ccc(CNC(=NC#N)Nc3ccncc3)cc2)cc1C [2-cyano-1-({4-[(4-methoxy-3-methylbenzene)sulfonyl]phenyl}methyl)-3-(pyridin-4-yl)guanidine]	7.69	7.82	
N#CN=C(NCc1ccc(S(=O)(=O)c2ccc(Cl)c(C(F)(F)F)c2)cc1)Nc1ccncc1 [1-[(4-{[4-chloro-3-(trifluoromethyl)benzene]sulfonyl}phenyl)methyl]-2-cyano-3-(pyridin-4-yl)guanidine]	9.00	8.82	
Cc1cccc(S(=O)(=O)c2ccc(CNC(=NC#N)Nc3ccncc3)cc2)c1 [2-cyano-1-({4-[(3-methylbenzene)sulfonyl]phenyl}methyl)-3-(pyridin-4-yl)guanidine]	8.28	8.34	
Cc1cc(S(=O)(=O)c2ccc(CNC(=NC#N)Nc3ccncc3)cc2)ccc1F [2-cyano-1-({4-[(4-fluoro-3-methylbenzene)sulfonyl]phenyl}methyl)-3-(pyridin-4-yl)guanidine]	8.51	8.41	
CN(C)c1ncc(S(=O)(=O)c2ccc(CNC(=NC#N)Nc3ccncc3)cc2)cn1 [2-cyano-1-({4-[2-(dimethylamino)pyrimidine-5-sulfonyl]phenyl}methyl)-3-(pyridin-4-yl)guanidine]	8.07	8.15	
N#CN=C(NCc1ccc(S(=O)(=O)c2cccc(C(=O)N3CCOCC3)c2)cc1)Nc1ccncc1 [2-cyano-1-{[4-({3-[(morpholin-4-yl)carbonyl]benzene}sulfonyl)phenyl]methyl}-3-(pyridin-4-yl)guanidine]	8.77	7.15	
N#CN=C(NCc1ccc(S(=O)(=O)c2cc(Cl)cc(Cl)c2)cc1)Nc1ccncc1 [2-cyano-1-({4-[(3,5-dichlorobenzene)sulfonyl]phenyl}methyl)-3-(pyridin-4-yl)guanidine]	7.95	8.80	
N#CN=C(NCc1ccc(S(=O)(=O)c2cccc(F)c2)cc1)Nc1ccncc1 [2-cyano-1-({4-[(3-fluorobenzene)sulfonyl]phenyl}methyl)-3-(pyridin-4-yl)guanidine]	8.49	7.84	
CC(C)Oc1ccc(S(=O)(=O)c2ccc(CNC(=NC#N)Nc3ccncc3)cc2)cc1 [2-cyano-1-[(4-{[4-(propan-2-yloxy)benzene]sulfonyl}phenyl)methyl]-3-(pyridin-4-yl)guanidine]	8.59	8.82	
N#C/N=C(\NCc1ccc(S(=O)(=O)c2ccccc2)cc1)Nc1ccncc1 [3-{[4-(benzenesulfonyl)phenyl]methyl}-2-cyano-1-(pyridin-4-yl)guanidine]	8.70	7.92	
Cc1cc(C)cc(S(=O)(=O)c2ccc(CNC(=NC#N)Nc3ccncc3)cc2)c1 [2-cyano-1-({4-[(3,5-dimethylbenzene)sulfonyl]phenyl}methyl)-3-(pyridin-4-yl)guanidine]	8.48	8.80	
Cn1ncc2ccc(S(=O)(=O)c3ccc(CN/C(=N\C#N)Nc4ccncc4)cc3)cc21 [2-cyano-1-{[4-(1-methyl-1H-indazole-6-sulfonyl)phenyl]methyl}-3-(pyridin-4-yl)guanidine]	9.00	8.80	
N#C/N=C(\NCc1ccc(S(=O)(=O)c2ccc(N3CCOCC3)cc2)cc1)Nc1ccncc1 [2-cyano-1-[(4-{[4-(morpholin-4-yl)benzene]sulfonyl}phenyl)methyl]-3-(pyridin-4-yl)guanidine]	8.82	8.55	
CCCOc1ccc(S(=O)(=O)c2ccc(CNC(=NC#N)Nc3ccncc3)cc2)cc1Cl [1-({4-[(3-chloro-4-propoxybenzene)sulfonyl]phenyl}methyl)-2-cyano-3-(pyridin-4-yl)guanidine]	8.31	8.24	
Cc1ccc(S(=O)(=O)c2ccc(CNC(=NC#N)Nc3ccncc3)cc2)cc1C [2-cyano-1-({4-[(3,4-dimethylbenzene)sulfonyl]phenyl}methyl)-3-(pyridin-4-yl)guanidine]	8.66	8.92	
N#C/N=C(\NCc1ccc(S(=O)(=O)c2ccc(-c3ccccc3)cc2)cc1)Nc1ccncc1 [2-cyano-1-({4-[(4-phenylbenzene)sulfonyl]phenyl}methyl)-3-(pyridin-4-yl)guanidine]		8.21	
N#CN=C(NCc1ccc(S(=O)(=O)c2cccc3c2OCO3)cc1)Nc1ccncc1 [1-{[4-(2H-1,3-benzodioxole-4-sulfonyl)phenyl]methyl}-2-cyano-3-(pyridin-4-yl)guanidine]		8.03	
N#CN=C(NCc1ccc(S(=O)(=O)c2ccc(-n3cccn3)c(F)c2)cc1)Nc1ccncc1 [2-cyano-1-[(4-{[3-fluoro-4-(1H-pyrazol-1-yl)benzene]sulfonyl}phenyl)methyl]-3-(pyridin-4-yl)guanidine]		8.03	
N#C/N=C(\NCc1ccc(S(=O)(=O)c2ccc(-c3ccccc3)cc2)cc1)Nc1ccncc1 [2-cyano-1-({4-[(4-phenylbenzene)sulfonyl]phenyl}methyl)-3-(p] [2-cyano-1-({4-[(4-phenylbenzene)sulfonyl]phenyl}methyl)-3-(pyridin-4-yl)guanidine]	8.46		
